Source: publication PMC11694514, “Structural and kinetic characterization of DUSP5 with a Di-phosphorylated tripeptide substrate from the ERK activation loop” (Frontiers in chemical biology, 2024)
Where two headings read alike, the source gives them in different places. Where a SMILES comes first, the peptide text is derived from it. [ ]: non-standard residue; d: D form. pY = N[C@@H](Cc1ccc(OP(=O)(O)O)cc1)C(=O)O; pT = C[C@@H](OP(=O)(O)O)[C@H](N)C(=O)O

Columns and labels:
PTP1B = details: cited from earlier work
[1] = target: Human prostatic acid phosphatase; details: pH 5.0; substrate PNPP; Sodium acetate; ref Zhou et al. (1993); cited from earlier work
[2] = target: SHP-1 (domain containing protein tyrosine phosphatase-1); details: pH 7.5; substrate PNPP; Tris; ref Heo et al. (2002); cited from earlier work
[3] = target: Bovine Low Molecular Weight Phosphotyrosyl Phosphatase; design: method as in Zhang et al. (1997); details: Bovine heart, substrate PNPP, Sodium acetate, ref Zhang et al. (1997), cited from earlier work
DUSP5pdWT [4] = target: T1, DUSP5pdWT (Homo sapiens, UniProt Q16690); experiment: Steady state inhibition of pNPP hydrolysis by vanadate and phosphate; details: for inhibition pattern / Ki (Kis): pNPP substrate; for Ki (Kis): Tris pH 7.5, 0.045 mM DTT, global kinetics analysis
T1 sequence (Q16690 178-319 limits assumed): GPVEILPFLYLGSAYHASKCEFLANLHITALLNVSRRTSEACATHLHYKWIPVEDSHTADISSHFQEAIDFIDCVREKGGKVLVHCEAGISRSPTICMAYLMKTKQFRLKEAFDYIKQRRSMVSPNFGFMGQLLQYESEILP
Procedure: All assays were carried out using pNPP as a substrate in the presence of DTT using a microplate reader and a total volume of 100 μL. Each assay contained an enzyme concentration of approximately 0.072 mg/mL (appropriately 3.13 μM DUSP5pdWT) which was left in a stock solution at about 1 h at 4°C before use. Each assay consisted of a reaction mixture in 100 mM tris-hydrochloride buffer containing 100 mM NaCl and 5.0 mM magnesium chloride (MgCl2) at pH 7.5. […] The kinetic parameters were measured in the presence of 0.045 mM DTT in the assay solution and the assay was started with the addition of pNPP.
For phosphate inhibition studies, the phosphate inhibitor concentrations used were 0.5; 1; 2; 5; 10 mM. […] The kinetic runs were repeated three times and the data were initial processed using excel and the global kinetics analysis was performed using GraphPad Prism 10.1.2. The errors provided in the analysis were calculated by the program.

[5] = target: Phosphotyrosyl protein phosphatases; details: pH 5.0; substrate PNPP; Sodium acetate; ref Zhou et al. (1993); cited from earlier work
[6] = target: Acid phosphatases (Bovine liver); design: method as in Lawrence and Van Etten (1981); details: pH 5.5, substrate PNPP, Sodium acetate, ref Lawrence and Van Etten (1981); cited from earlier work
[7] = target: Bacteriophage λ protein phosphatase; details: pH 7.8; substrate PNPP; Tris; ref Reiter et al. (2001); cited from earlier work
PTPase = details: substrate PNPP, ref Deng et al. (2002), cited from earlier work
DUSPpdWT = target: T2, DUSPpdWT (Homo sapiens, UniProt Q16690); experiment: 31P NMR monitoring of tripeptide hydrolysis; assay type: biochemical
T2 construct: The Dusp5 phosphatase domain gene, both wild type (WT; DUSP5pdWT; used for kinetic studies); inferred from the Nickel NTA purification), with additional N-terminal amino acids (N); made in house
T2 sequence (Q16690 178-319 limits assumed): T1 sequence (Q16690 178-319 limits assumed)
Procedure: Hydrolysis of the pThr-Glu-pTyr peptide was monitored using ^31P 1D NMR and a Varian 500 MHz spectrometer equipped with a broad band probe. 1 mM of peptide was incubated with 100 μM of DUSPpdWT protein for 3 min, and spectra were collected at 25°C. See Figure 2 and, for a time course, Supplementary Figure S3.

DUSP5pdWT [8] = target: T1, DUSP5pdWT; experiment: Steady state inhibition of pNPP hydrolysis by tripeptides; assay type: biochemical; design: The Dusp5 phosphatase domain gene, both wild type (WT; DUSP5pdWT; used for kinetic studies); inferred from the Nickel NTA purification), with additional N-terminal amino acids (N); made in house; details: for Ki: peptide as inhibitor of pNPP hydrolysis
[9] = Ki, global competitive model, Lineweaver-Burk fit (equation S2)
[10] = Ki, global competitive model, Michaelis-Menten fit (Eq. 2)

Q: With sodium vanadate as the compound, how does the Ki (PTP1B; pH 5.5, substrate PNPP, Tris, ref Heo et al. (2002)) read?
A: Its Ki is 410 µM.

Q: And the Ki (PTP1B; pH 7.3, substrate FDP, HEPES, ref Huyer et al. (1997))?
A: Its Ki is 0.38 µM.

Q: And the Ki (PTP1B; pH 7.5, substrate PNPP, Tris, ref Heo et al. (2002))?
A: Its Ki is 5.6 µM.

Q: What about the Ki [1] of the same compound?
A: Its Ki is 36 µM.

Q: And the Ki [2]?
A: The Ki was 9.3 µM.

Q: And the Ki ([3]; pH 5.0)?
A: Its Ki is 5.4 µM.

Q: What about the Ki ([3]; pH 7.5) of the same compound?
A: Its Ki is 1 µM.

Q: What about the inhibition pattern (DUSP5pdWT [4]) of the same compound?
A: The inhibition pattern was “competitive inhibitors”.

Q: And the Ki [5]?
A: The Ki was 24 µM.

Q: What about the Ki [6] of the same compound?
A: Its Ki is 2000 µM.

Q: What about the Ki [7] of the same compound?
A: Its Ki is 0.7 µM.

Q: What about the Ki (PTPase; pH 5.5, Acetate) of the same compound?
A: The Ki was 1.1 µM.

Q: And the Ki (PTPase; pH 7.5, Tris)?
A: Its Ki is 1.2 µM.

Q: Which results are given for `O=P(O)(O)O` [phosphate, sodium phosphate]?
A: Ki (PTP1B; pH 7.0, substrate PNPP, 3,3-Dimethylglutarate, ref Zhang, Y.L. and Zhang, Z.Y. (1998)): 17000 µM; Ki ([3]; pH 5.0): 2200 ± 0.4 µM; Ki ([3]; pH 7.5): 6200 µM; inhibition pattern (DUSP5pdWT [4]): competitive inhibitors; Ki (Kis) (DUSP5pdWT [4]; listed as Phosphate): 17300 µM; Ki (Kis) (DUSP5pdWT [4]; listed as sodium phosphate): 17320 µM; inhibition pattern (DUSP5pdWT [4]; listed as Phosphate): competitive inhibition pattern; Ki [6]: 3000 µM

Q: Which “conversion to orthophosphate (both phosphates cleaved)” value (DUSPpdWT; 1 mM peptide, 100 μM DUSP5pdWT, 3 min, 25°C) does the source give for `CC(=O)N[C@H](C(=O)N[C@@H](CCC(=O)O)C(=O)N[C@@H](Cc1ccc(OP(=O)(O)O)cc1)C(N)=O)[C@@H](C)OP(=O)(O)O` [pT-E-pY, Ac-pThr-Glu-pTyr-NH2] (Ac-[pT]-Glu-[pY]-NH2) here?
A: The value was 100%.

Q: And the “pT and pY peptides remaining (each)” value (DUSPpdWT; 10-fold lower enzyme concentration, even after prolonged incubation)?
A: The value was “about 25%”.

Q: What about the conversion (DUSPpdWT; 10-fold lower enzyme concentration, first timepoint after 3 min incubation) of the same compound?
A: The conversion was “about 50%”.

Q: And the Ki (DUSP5pdWT [8]; [9])?
A: The Ki was 1220 µM.

Q: What about the Ki (DUSP5pdWT [8]; [10]) of the same compound?
A: The Ki was 1670 µM.

Q: And the kcat (DUSP5pdWT [8]; pNPP substrate, peptide as inhibitor, global competitive model, Michaelis-Menten fit (Eq. 2))?
A: The kcat was 2.03 ± 0.07 × 10^−2 s^−1.

Q: What about the “fold more potent binder” value (DUSP5pdWT [8]; relative to the pY monophosphorylated peptide) of the same compound?
A: Its value is “roughly 3 x”.

Q: For `CC(=O)N[C@H](C(=O)N[C@@H](CCC(=O)O)C(=O)N[C@@H](Cc1ccc(OP(=O)(O)O)cc1)C(N)=O)[C@@H](C)O` [T-E-pY] (Ac-Thr-Glu-[pY]-NH2), which Ki (DUSP5pdWT [8]; [9]) is on record?
A: Its Ki is 4800 µM.

Q: What about the Ki (DUSP5pdWT [8]; [10]) of the same compound?
A: Its Ki is 4930 µM.

Q: With `CC(=O)N[C@H](C(=O)N[C@@H](CCC(=O)O)C(=O)N[C@@H](Cc1ccc(O)cc1)C(N)=O)[C@@H](C)OP(=O)(O)O` [pT-E-Y] (Ac-[pT]-Glu-Tyr-NH2) as the compound, how does the Ki (DUSP5pdWT [8]; global competitive model, Lineweaver-Burk fit (equation S2), read-out: Ki) read?
A: The Ki was 21900 µM.

Q: And the Ki (DUSP5pdWT [8]; global competitive model, Michaelis-Menten fit (Eq. 2), read-out: Ki)?
A: The Ki was 15800 µM.

Q: Which Km (DUSP5pdWT [4]; pH 7.5) does the source give for `O=[N+]([O-])c1ccc(OP(=O)(O)O)cc1` [pNPP, p-nitrophenol phosphate] here?
A: The Km was 8.02 mM.
